Data as given in the NIST ThermoML archive (doi:10.1021/je0501843).

Assay: molar heat capacity at constant volume; wn = mass fraction of the nth substance listed
Conditions: Fluid (supercritical or subcritical phases), Vacuum adiabatic calorimetry, w1 = 0.5001

FC(F)C(F)(F)F [pentafluoroethane] + FCF
Conditions	molar heat capacity at constant volume [J/K/mol]
380 K, 9183 kPa	75.69
380 K, 9715 kPa	75.6
380 K, 10331 kPa	73.35
380 K, 13988 kPa	71.55
381 K, 8790 kPa	77.44
381 K, 9306 kPa	77.28
381 K, 9856 kPa	75.26
381 K, 10492 kPa	73.9
381 K, 14227 kPa	72.04
382 K, 8897 kPa	78.41
382 K, 9432 kPa	76.92
382 K, 9996 kPa	76.48
382 K, 10651 kPa	74.52
382 K, 14466 kPa	72.98
383 K, 9005 kPa	77.33
383 K, 9553 kPa	75.97
383 K, 10136 kPa	75.35
383 K, 10808 kPa	74.44
383 K, 14706 kPa	72.4
384 K, 9112 kPa	76.6
384 K, 9679 kPa	76.51
384 K, 10277 kPa	75.34
384 K, 10967 kPa	74.6
384 K, 14944 kPa	71.93
385 K, 9219 kPa	77.25
385 K, 9804 kPa	75.82
385 K, 10418 kPa	76.16
385 K, 11125 kPa	74.07
385 K, 15188 kPa	72.26
386 K, 9326 kPa	78.28
386 K, 9929 kPa	76.35
386 K, 10558 kPa	76.6
386 K, 11283 kPa	75.16
386 K, 15426 kPa	73.47
387 K, 9434 kPa	77.16
387 K, 10051 kPa	76.61
387 K, 10699 kPa	76.14
387 K, 11442 kPa	74.89
387 K, 15666 kPa	72.66
388 K, 9540 kPa	76.32
388 K, 10174 kPa	74.86
388 K, 10840 kPa	75.57
388 K, 11602 kPa	73.37
388 K, 15904 kPa	71.19
389 K, 9649 kPa	77.31
389 K, 10296 kPa	75.87
389 K, 10980 kPa	76.71
389 K, 11761 kPa	73.84
389 K, 16147 kPa	71.61
390 K, 9756 kPa	77.57
390 K, 10421 kPa	77.3
390 K, 11124 kPa	76.88
390 K, 11922 kPa	75.02
390 K, 16388 kPa	72.19
391 K, 9862 kPa	77.21
391 K, 10547 kPa	76.53
391 K, 11263 kPa	76.5
391 K, 12081 kPa	74.96
391 K, 16627 kPa	71.79
392 K, 9969 kPa	77.4
392 K, 10670 kPa	75.59
392 K, 11403 kPa	75.77
392 K, 12239 kPa	73.58
392 K, 16868 kPa	71.21
393 K, 10077 kPa	78.13
393 K, 10795 kPa	76.57
393 K, 11546 kPa	75.66
393 K, 12400 kPa	74.26
393 K, 17110 kPa	71.47
394 K, 10185 kPa	78.09
394 K, 10920 kPa	77.19
394 K, 11688 kPa	76.6
394 K, 12560 kPa	75.24
394 K, 17351 kPa	71.82
395 K, 10292 kPa	77.54
395 K, 11045 kPa	76.74
395 K, 11829 kPa	75.92
395 K, 12720 kPa	73.89
395 K, 17590 kPa	71.67
396 K, 10400 kPa	77.68
396 K, 11168 kPa	76.85
396 K, 11972 kPa	76.16
396 K, 12880 kPa	73.78
396 K, 17831 kPa	71.16
397 K, 10508 kPa	78.41
397 K, 11292 kPa	76.06
397 K, 12113 kPa	76.4
397 K, 13040 kPa	74.36
397 K, 18073 kPa	71.18
398 K, 10616 kPa	78.25
398 K, 11415 kPa	76.66
398 K, 12256 kPa	75.92
398 K, 13199 kPa	74.81
398 K, 18315 kPa	72.43
399 K, 10723 kPa	77.16
399 K, 11538 kPa	76.8
399 K, 12395 kPa	76.53
399 K, 13361 kPa	74.08
399 K, 18556 kPa	72.11
